Test results taken from patent US6107288A, “Antiviral nucleoside combination” (priority 1991, dated 2000).
Several values for one entry are separate records, joined by “and”; a condition that tells them apart may be missing. Identical values can stand only once. Like-named read-outs stand apart in the source and are kept apart here.

System: HIV
Format: cell-based
Procedure: Combinations according to the invention were tested for anti-HIV activity in an HIV-infected MT4 cell assay as described in Averett, D. R., J. Virol. Methods, 23, 263-276 (1989). The cells were exposed to HIV for one hour prior to addition of antiviral component(s). Components were tested in serial 2.5-fold dilutions. After five days of incubation at 37° C., the cell number was determined. Inhibition of HIV-induced cytopathic effect was calculated, and synergism was determined by FIC plots as described by Elion, Singer, and Hitchings, J. Biol. Chem. 208, 477 (1954).
The fractional inhibitor concentrations (FIC) of zidovudine and cis-1-(2-(hydroxymethyl)-1,3-oxathiolan-5-yl)-5-fluorocytosine were calculated according to the method of Elion et al., supra (Table 1).

Compound | Fractional Inhibitor Concentration (FIC) | Fractional Inhibitor Concentration (FIC) (70% inhibition, combination of zidovudine 0.004 with Compound 1 2.5) | Fractional Inhibitor Concentration (FIC) (70% inhibition, combination of zidovudine 0.01 with Compound 1 2.0) | Fractional Inhibitor Concentration (FIC) (70% inhibition, combination of zidovudine 0.0256 with Compound 1 1.6) | Fractional Inhibitor Concentration (FIC) (70% inhibition, combination of zidovudine 0.06 with Compound 1 1.4)
Nc1nc(=O)n([C@@H]2CS[C@H](CO)O2)cc1F (relative stereo) [Compound 1, cis1-(2-(hydroxymethyl)-1,3-oxathiolan-5-yl)-5-fluorocytosine] | 0.48 and 0.38 and 0.31 and 0.26 | – | – | – | –
Cc1cn([C@H]2C[C@H](N=[N+]=[N-])[C@@H](CO)O2)c(=O)[nH]c1=O [Zidovudine, 3'-azido-3'-deoxythymidine] | – | 0.018 | 0.045 | 0.12 | 0.27
